# Assays:
# [1] = test system: P. falciparum NF54-PfACS11-cKD; assay: cKD compound susceptibility assay, PfACS11 cKD line; type: cell-based; settings: 50 nM aTc vs no aTc
# PfAcAS T648M = molecular target: T1, PfAcAS T648M (Plasmodium falciparum, UniProt C6KTB4, T648M); assay: EnzChek assay, recombinant PfAcAS T648M; type: biochemical, P. falciparum
# T1 sequence (C6KTB4 1-997 T648M): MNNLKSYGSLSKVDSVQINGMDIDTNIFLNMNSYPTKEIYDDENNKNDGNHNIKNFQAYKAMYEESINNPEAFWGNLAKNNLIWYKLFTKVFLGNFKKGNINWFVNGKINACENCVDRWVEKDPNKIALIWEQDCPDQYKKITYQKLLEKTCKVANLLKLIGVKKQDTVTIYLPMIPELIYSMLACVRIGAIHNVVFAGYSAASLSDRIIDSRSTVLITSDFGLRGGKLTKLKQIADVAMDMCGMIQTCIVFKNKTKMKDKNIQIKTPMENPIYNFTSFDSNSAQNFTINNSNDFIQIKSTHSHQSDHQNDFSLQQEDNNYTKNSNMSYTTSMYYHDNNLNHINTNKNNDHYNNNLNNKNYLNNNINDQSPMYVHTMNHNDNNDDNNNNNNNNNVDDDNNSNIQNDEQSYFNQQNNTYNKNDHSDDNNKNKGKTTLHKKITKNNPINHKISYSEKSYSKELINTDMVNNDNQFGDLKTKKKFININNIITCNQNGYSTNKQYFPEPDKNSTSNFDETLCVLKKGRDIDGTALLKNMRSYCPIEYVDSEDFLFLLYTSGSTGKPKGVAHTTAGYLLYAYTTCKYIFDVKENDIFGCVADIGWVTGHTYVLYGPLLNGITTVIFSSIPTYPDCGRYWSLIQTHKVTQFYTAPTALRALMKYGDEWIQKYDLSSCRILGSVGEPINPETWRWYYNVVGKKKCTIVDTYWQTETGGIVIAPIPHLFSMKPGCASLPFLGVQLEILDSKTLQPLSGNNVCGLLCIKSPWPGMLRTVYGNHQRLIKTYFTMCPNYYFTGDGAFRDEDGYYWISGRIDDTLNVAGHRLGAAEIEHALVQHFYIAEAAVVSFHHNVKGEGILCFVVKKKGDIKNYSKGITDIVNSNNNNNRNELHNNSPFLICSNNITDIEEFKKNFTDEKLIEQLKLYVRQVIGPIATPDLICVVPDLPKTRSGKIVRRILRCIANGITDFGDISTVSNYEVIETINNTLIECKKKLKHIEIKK
# Experimental: Steady-state kinetic measurements were conducted at room temperature using a PheraStar plate reader (BMG). The first step of the reaction of PfAcAS, which produces inorganic pyrophosphate (PPi) that is converted to two molecules of inorganic phosphate using a pyrophosphatase enzyme, was continuously monitored using the EnzChek Phosphate Assay Kit, which gives an absorbance readout at 360 nm (Figure 4A) ([Webb, 1992]). […] By adding CoA, the reaction rapidly proceeds to the second step resulting in further release of pyrophosphate, making the EnzChek assay a suitable option to continuously monitor the activity of PfAcAS. Typical kinetic assays were carried out in clear, flat-bottom, polystyrene, 384-well plates (Greiner) in an 80 μL reaction volume containing 100 mM HEPES (pH7.4), 100 mM NaCl, 250 mM KCl, 50 mM MgCl2, 1 mM DTT, 0.004% Tween 20, 0.5 U/mL pyrophosphatase, 0.1 mM MESG, 0.5 U/mL PNP, 2 mM ATP, 2 mM acetate, 0.5 mM CoA and 5 nM recombinant PfAcAS WT or 10 nM recombinant PfAcAS A597V or T648M. Assays were performed by adding 40 μL of a 2-times concentrated substrate mixture including MESG to all wells, and the reactions started by adding 40 μL of a 2-times concentrated reaction mixture containing all other components. The reactions were carried out for 2 to 4 hr with absorbance readings at 360 nm every two to four minutes. Reaction rates were extracted from the linear phase of activity, usually using 10 to 20 points between times of 30 and 100 min of the reactions. Using a phosphate standard curve obtained under the same buffer conditions used for the PfAcAS reactions (Figure S5A), the rates were then converted to velocity per second, conversion of one nanomolar of phosphate, per nanomolar of enzyme, per second. The substrates Km values were determined by varying the concentration of one of the substrates at saturating concentration of the other two substrates. Steady-state data were fitted using the nonlinear, least-squares, curve-fitting programs of Sigma-Plot for Windows, version 14.0. Individual saturation curves were fit to Equation 1(Equation 1) v=VS/K+S where V is the maximal velocity, S is the substrate concentration and K is the Michaelis constant for the substrate (Km). Individual saturation curves displaying substrate inhibition were fit to Equation 2(Equation 2) v=VS/K+S×(1+S/Ks) where Ks is the substrate inhibition constant.
# To determine the steady-state inhibition parameters and patterns associated with both inhibitors, PfAcAS activity was studied in the presence of variable concentrations of one substrate, ATP, acetate or CoA, fixed saturating concentration of the other two substrates (acetate and CoA, ATP and CoA, or ATP and acetate) and several fixed concentrations of inhibitor. Assay ready plates containing different concentrations of inhibitor were prepared using an Echo 550 acoustic dispenser (Labcyte Inc.). The assays were carried out as described in the previous section. […] For better comparison between both inhibitors and proteins, the ymin was fixed to zero and the ymax to 100. Inhibition data showing linear, competitive patterns in double-reciprocal plots were fit to Equation 4(Equation 4) v=VS/K(1+I/Ki)+S where Ki is the dissociation constant for the enzyme-inhibitor complex. Inhibition data showing linear, mixed inhibition patterns in double-reciprocal plots were fit to Equation 5(Equation 5) v=VS/K(1+I/Kis)+S(1+I/Kii) where Kis is the dissociation constant for the free enzyme-inhibitor complex and Kii is the dissociation constant for the enzyme-substrate-inhibitor complex. Inhibition data showing linear, uncompetitive patterns in double-reciprocal plots were fit to Equation 6(Equation 6) v=VS/K+S(1+I/Ki)
SMILES,effect of conditional knockdown of PfACS11 on parasite sensitivity [1],"Hill, AcAS T648M (PfAcAS T648M)",IC50 (PfAcAS T648M) [µM]
CCN(CC)S(=O)(=O)c1ccc(Cl)c(C(=O)Nc2ccc3nc(C)sc3c2)c1 [MMV019721],did not increase parasite sensitivity,0.81 ± 0.12,18 ± 3.2
O=C(NNC(=O)c1csnn1)c1ccc(Cl)cc1 [MMV084978],did not increase parasite sensitivity,,> 100
